In ChEMBL document CHEMBL1201861, “Genomics of Drug Sensitity in Cancer screening data, Wellcome Trust Sanger Institute”:

Tests used:
DG-75 = test: cells; format: functional, cell-based, Homo sapiens; conditions: Homo sapiens, DG-75;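 further: growth inhibition of DG-75 cells, read out with a cell viability assay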
Description: SANGER: Inhibition of human DG-75 cell growth in a cell viability assay.

LOUCY = test: cells; format: functional, cell-based, Homo sapiens; conditions: Homo sapiens, LOUCY;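 further: growth inhibition of human LOUCY cells, read out with a cell viability assay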
Description: SANGER: Inhibition of human LOUCY cell growth in a cell viability assay.

NCI-H1522 = test: cells; format: functional, cell-based, Homo sapiens; conditions: Homo sapiens, NCI-H1522;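 further: growth inhibition of NCI-H1522 cells, read out with a cell viability assay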
Description: SANGER: Inhibition of human NCI-H1522 cell growth in a cell viability assay.

NCI-H1694 = test: cells; format: functional, cell-based, Homo sapiens; conditions: Homo sapiens, NCI-H1694;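 further: cell viability assay measuring inhibition of growth in human NCI-H1694 cells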
Description: SANGER: Inhibition of human NCI-H1694 cell growth in a cell viability assay.

PF-382 = test: cells; format: functional, cell-based, Homo sapiens; conditions: Homo sapiens, PF-382
Description: SANGER: Inhibition of human PF-382 cell growth in a cell viability assay.

REH = test: cells; format: functional, cell-based, Homo sapiens; conditions: Homo sapiens, REH;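 further: growth inhibition of REH cells determined with a cell viability read-out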
Description: SANGER: Inhibition of human REH cell growth in a cell viability assay.

BC1 cell line = test: SANGER: Inhibition of human BC-1 cell growth in a cell viability assay.; format: functional, cell-based; conditions: Homo sapiens, BC1
TE-441-T = test: cells; format: functional, cell-based, Homo sapiens; conditions: Homo sapiens, TE-441-T
Description: SANGER: Inhibition of human TE-441-T cell growth in a cell viability assay.

UACC-812 = test: cells; format: functional, cell-based, Homo sapiens; conditions: Homo sapiens, UACC-812
Description: SANGER: Inhibition of human UACC-812 cell growth in a cell viability assay.

CMK = test: cells; format: functional, cell-based, Homo sapiens; conditions: Homo sapiens, CMK;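 further: growth inhibition of CMK cells, read out as cell viability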
Description: SANGER: Inhibition of human CMK cell growth in a cell viability assay.

Calu-3 = test: cells; format: functional, cell-based, Homo sapiens; conditions: Homo sapiens, Calu-3;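 further: growth inhibition of human Calu-3 cells, determined with a cell viability assay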
Description: SANGER: Inhibition of human Calu-3 cell growth in a cell viability assay.

ChaGo-K-1 = test: cells; format: functional, cell-based, Homo sapiens; conditions: Homo sapiens, ChaGo-K-1;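 further: growth inhibition of ChaGo-K-1 cells, read out with a cell viability assay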
Description: SANGER: Inhibition of human ChaGo-K-1 cell growth in a cell viability assay.

DBTRG-05MG = test: cells; format: functional, cell-based, Homo sapiens; conditions: Homo sapiens, DBTRG-05MG;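 further: cell viability assay measuring growth inhibition of human DBTRG-05MG cells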
Description: SANGER: Inhibition of human DBTRG-05MG cell growth in a cell viability assay.

DK-MG = test: cells; format: functional, cell-based, Homo sapiens; conditions: Homo sapiens, DK-MG;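 further: growth inhibition of DK-MG cells, read out with a cell viability assay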
Description: SANGER: Inhibition of human DK-MG cell growth in a cell viability assay.

DMS-273 = test: cells; format: functional, cell-based, Homo sapiens; conditions: Homo sapiens, DMS-273
Description: SANGER: Inhibition of human DMS-273 cell growth in a cell viability assay.

EFO-21 = test: cells; format: functional, cell-based, Homo sapiens; conditions: Homo sapiens, EFO-21;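 further: growth inhibition of EFO-21 cells measured with a viability assay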
Description: SANGER: Inhibition of human EFO-21 cell growth in a cell viability assay.

HCC1569 = test: cells; format: functional, cell-based, Homo sapiens; conditions: Homo sapiens, HCC1569;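 further: growth inhibition of human HCC1569 cells, read out with a cell viability assay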
Description: SANGER: Inhibition of human HCC1569 cell growth in a cell viability assay.

HCT-116 = test: cells; format: functional, cell-based, Homo sapiens; conditions: Homo sapiens, HCT-116
Description: SANGER: Inhibition of human HCT-116 cell growth in a cell viability assay.

KYSE-70 cell line = test: cells; format: functional, cell-based, Homo sapiens; conditions: Homo sapiens, KYSE-70;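 further: cell viability assay read-out, with IC50 expressing suppression of KYSE-70 cell growth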
Description: SANGER: Inhibition of human KYSE-70 cell growth in a cell viability assay.

M14 = test: cells; format: functional, cell-based, Homo sapiens; conditions: Homo sapiens, M14;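 further: growth inhibition of M14 cells, read out with a cell viability assay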
Description: SANGER: Inhibition of human M14 cell growth in a cell viability assay.

MDA-MB-175-VII = test: cells; format: functional, cell-based, Homo sapiens; conditions: Homo sapiens, MDA-MB-175-VII
ME-180 = test: cells; format: functional, cell-based, Homo sapiens; conditions: Homo sapiens, ME-180;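 further: cell viability assay measuring growth inhibition of ME-180 cells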
Description: SANGER: Inhibition of human ME-180 cell growth in a cell viability assay.

MIA PaCa-2 = test: cells; format: functional, cell-based, Homo sapiens; conditions: Homo sapiens, MIA PaCa-2;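 further: growth inhibition of MIA PaCa-2 cells, read out with a cell viability assay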
Description: SANGER: Inhibition of human MIA-PaCa-2 cell growth in a cell viability assay.

MKN-1 = test: cells; format: functional, cell-based, Homo sapiens; conditions: Homo sapiens, MKN-1;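 further: growth inhibition of human MKN1 cells, read out by a cell viability measurement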
Description: SANGER: Inhibition of human MKN1 cell growth in a cell viability assay.

NCI-H1437 = test: cells; format: functional, cell-based, Homo sapiens; conditions: Homo sapiens, NCI-H1437;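 further: growth inhibition of human NCI-H1437 cells, read out by a cell viability assay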
Description: SANGER: Inhibition of human NCI-H1437 cell growth in a cell viability assay.

NCI-H28 = test: cells; format: functional, cell-based, Homo sapiens; conditions: Homo sapiens, NCI-H28;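 further: growth inhibition of human NCI-H28 cells, read out as cell viability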
Description: SANGER: Inhibition of human NCI-H28 cell growth in a cell viability assay.

NCI-H520 = test: cells; format: functional, cell-based, Homo sapiens; conditions: Homo sapiens, NCI-H520;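 further: growth inhibition of NCI-H520 cells, measured by a cell viability assay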
Description: SANGER: Inhibition of human NCI-H520 cell growth in a cell viability assay.

OE19 = test: cells; format: functional, cell-based, Homo sapiens; conditions: Homo sapiens, OE19;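 further: growth inhibition of OE19 cells, measured through a cell viability read-out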
Description: SANGER: Inhibition of human OE19 cell growth in a cell viability assay.

OVCAR-3 = test: cells; format: functional, cell-based, Homo sapiens; conditions: Homo sapiens, OVCAR-3;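 further: growth inhibition of human OVCAR-3 cells, determined by a cell viability assay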
Description: SANGER: Inhibition of human OVCAR-3 cell growth in a cell viability assay.

Panc1005 = test: cells; format: functional, cell-based, Homo sapiens; conditions: Homo sapiens, Panc1005;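 further: growth inhibition of human PANC-10-05 cells, measured by a cell viability assay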
Description: SANGER: Inhibition of human PANC-10-05 cell growth in a cell viability assay.

PC-14 = test: cells; format: functional, cell-based, Homo sapiens; conditions: Homo sapiens, PC-14;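 further: cell viability assay measuring inhibition of PC-14 cell growth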
Description: SANGER: Inhibition of human PC-14 cell growth in a cell viability assay.

RPMI-2650 = test: cells; format: functional, cell-based, Homo sapiens; conditions: Homo sapiens, RPMI-2650
Description: SANGER: Inhibition of human RPMI-2650 cell growth in a cell viability assay.

SBC-5 = test: cells; format: functional, cell-based, Homo sapiens; conditions: Homo sapiens, SBC-5;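 further: cell viability assay read-out, IC50 is the concentration that inhibits growth of the cells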
Description: SANGER: Inhibition of human SBC-5 cell growth in a cell viability assay.

SW1417 = test: cells; format: functional, cell-based, Homo sapiens; conditions: Homo sapiens, SW1417;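 further: growth inhibition of human SW1417 cells, read out with a cell viability assay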
Description: SANGER: Inhibition of human SW1417 cell growth in a cell viability assay.

CWR22R = test: cells; format: functional, cell-based, Homo sapiens; conditions: Homo sapiens, 22Rv1;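 further: growth inhibition of 22Rv1 cells, read out with a cell viability assay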
Description: SANGER: Inhibition of human 22RV1 cell growth in a cell viability assay.

BHY = test: cells; format: functional, cell-based, Homo sapiens; conditions: Homo sapiens, BHY;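 further: cell growth inhibition read out by a viability assay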
Description: SANGER: Inhibition of human BHY cell growth in a cell viability assay.

C32 = test: cells; format: functional, cell-based, Homo sapiens; conditions: Homo sapiens, C32;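 further: cell viability assay, with IC50 reflecting inhibition of C32 cell growth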
Description: SANGER: Inhibition of human C32 cell growth in a cell viability assay.

C3A = test: cells; format: functional, cell-based, Homo sapiens; conditions: Homo sapiens, C3A;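 further: growth inhibition of C3A human cells, quantified with a cell viability readout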
Description: SANGER: Inhibition of human C3A cell growth in a cell viability assay.

CAL-51 = test: cells; format: functional, cell-based, Homo sapiens; conditions: Homo sapiens, CAL-51;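 further: human CAL-51 cell line, growth inhibition read out via a cell viability assay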
Description: SANGER: Inhibition of human CAL-51 cell growth in a cell viability assay.

CAL-72 = test: cells; format: functional, cell-based, Homo sapiens; conditions: Homo sapiens, CAL-72;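 further: cell viability assay measuring inhibition of proliferation in the CAL-72 cell line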
Description: SANGER: Inhibition of human CAL-72 cell growth in a cell viability assay.

VMRC-RCZ = test: cells; format: functional, cell-based, Homo sapiens; conditions: Homo sapiens, VMRC-RCZ
Description: SANGER: Inhibition of human VMRC-RCZ cell growth in a cell viability assay.

COLO-679 = test: cells; format: functional, cell-based, Homo sapiens; conditions: Homo sapiens, COLO-679
Description: SANGER: Inhibition of human COLO-679 cell growth in a cell viability assay.

COLO-680N = test: cells; format: functional, cell-based, Homo sapiens; conditions: Homo sapiens, COLO-680N;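 further: cell viability assay used to measure inhibition of COLO-680N cell growth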
Description: SANGER: Inhibition of human COLO-680N cell growth in a cell viability assay.

Measured: IC50

COc1cc2ncn(-c3cc(OCc4ccccc4S(C)(=O)=O)c(C#N)s3)c2cc1OC [GSK-319347A]
> 5 µM: DG-75 | LOUCY | NCI-H1522 | NCI-H1694 | PF-382 | REH | BC1 cell line | TE-441-T | UACC-812 | CMK

CC[C@H](CO)Nc1nc(NCc2ccccc2)c2ncn(C(C)C)c2n1 [SELICICLIB]
> 16 µM: DG-75 | LOUCY | NCI-H1522 | NCI-H1694 | PF-382 | REH | BC1 cell line | TE-441-T | UACC-812 | CMK

CC(=O)O[C@H]1C(=O)[C@@]2(C)[C@H]([C@H](OC(=O)c3ccccc3)[C@]3(O)C[C@H](OC(=O)[C@H](O)[C@@H](NC(=O)c4ccccc4)c4ccccc4)C(C)=C1C3(C)C)[C@]1(OC(C)=O)CO[C@@H]1C[C@@H]2O [PACLITAXEL]
> 0.102 µM: NCI-H1522 | NCI-H1694 | REH | BC1 cell line | TE-441-T
0.069 µM: DG-75
0.0238 µM: PF-382
0.0273 µM: CMK
0.00775 µM: LOUCY

O=C(O)c1ccc(-c2c[nH]c3ncc(-c4ccccc4)cc23)cc1C1CCCC1 [GSK-650394]
6.13 µM: NCI-H1437
5.36 µM: CAL-51
8.25 µM: CMK
14.9 µM: SBC-5
4.92 µM: BHY
5.3 µM: COLO-679
10.7 µM: Calu-3
2.52 µM: BC1 cell line
9.19 µM: MKN-1
11.4 µM: Panc1005
7.08 µM: MIA PaCa-2
> 16 µM: all other assays above

CCN(CC)CCNC(=O)c1c(C)[nH]c(/C=C2\C(=O)Nc3ccc(F)cc32)c1C [SUNITINIB]
6.43 µM: DG-75
7.25 µM: BC1 cell line
1.96 µM: CMK
> 8 µM: LOUCY | NCI-H1522 | NCI-H1694 | REH | TE-441-T
3.45 µM: PF-382

Cc1ccc(-c2c(C(=O)CCl)n(CCCO)c3ncnc(N)c23)cc1
1.22 µM: PF-382
> 4 µM: DG-75 | LOUCY | NCI-H1522 | NCI-H1694 | REH | BC1 cell line | TE-441-T | CMK
